For experiment [1], the system named is protein kinases (human kinome). The class given is cell-based. The following applies: for kinases the bifunctional compound degrades: as stated for the structure in the embodiments; for Kinase hits: kinases significantly downregulated vs DMSO (fold change cutoff −1.25, P-value<0.01), ≤8 h, 0.1-5 μM degrader, 7 cell lines; for Total no. kinase hits: number of degraded kinases per library compound.

Experiment [2] addresses protein kinases in MOLT-4 cells (Homo sapiens, UniProt P41240). The experiment in a line: Whole cell quantitative proteomics in MOLT-4 cells. The following applies: compared with the library; MOLT-4, 1 μM, 5 h.
Method: (§1) Whole cell multiplexed quantitative proteomics was employed to measure changes in abundance of the proteome in response to treatment with each of the kinase degrader molecules relative to DMSO (Table 1, Appendix I).
(§2) Cells were treated with DMSO (biological triplicate) or degrader at indicated dose and time and cells were harvested by centrifugation. […] Precipitated protein was resuspended in 4 M Urea, 50 mM HEPES pH 7.4, followed by dilution to 1 M urea with the addition of 200 mM EPPS, pH 8. Proteins were first digested with LysC (1:50: enzyme:protein) for 12 hours at room temperature. The LysC digestion was diluted to 0.5 M Urea with 200 mM EPPS pH 8 followed by digestion with trypsin (1:50; enzyme:protein) for 6 hours at 37° C. Tandem mass tag (TMT) reagents (Thermo Fisher Scientific) were dissolved in anhydrous acetonitrile (ACN) according to manufacturer's instructions. […] The 10, 11, or 16-plex labeling reactions were performed for 1.5 hours at room temperature and the reaction quenched by the addition of hydroxylamine to a final concentration of 0.3% for 15 minutes at room temperature. The sample channels were combined at a 1:1 ratio, desalted using C18 solid phase extraction cartridges (Waters®) and analyzed by LC-MS for channel ratio comparison. Samples were then combined using the adjusted volumes determined in the channel ratio analysis and dried down in a speed vacuum. The combined sample was then resuspended in 1% formic acid, and acidified (pH 2-3) before being subjected to desalting with C18 SPE (Sep-Pak®, Waters®). Samples were then offline fractionated into 96 fractions by high pH reverse-phase HPLC (Agilent® LC1260) through an aeris peptide xb-c18 column (Phenomenex®) with mobile phase A containing 5% acetonitrile and 10 mM NH4HCO3 in LC-MS grade H2O, and mobile phase B containing 90% acetonitrile and 10 mM NH4HCO3 in LC-MS grade H2O (both pH 8.0). The 96 resulting fractions were then pooled in a non-continuous manner into 24 fractions and desalted using C18 solid phase extraction plates (SOLA®, Thermo Fisher Scientific) followed by subsequent mass spectrometry analysis.
(§3) Data were collected using an Orbitrap Fusion™ Lumos™ mass spectrometer (Thermo Fisher Scientific, San Jose, CA, USA) coupled with a Proxeon EASY-nLC™ 1200 LC pump (Thermo Fisher Scientific) or an Orbitrap Eclipse™ Tribrid™ mass spectrometer (Thermo Fisher Scientific, San Jose, CA, USA) coupled with an UltiMate™ 3000 RSLCnano System. Peptides were separated on an EasySpray™ ES803a/ES803a.rev2 75 μm inner diameter microcapillary column (ThermoFisher Scientific).
(§4) Data dependent MS2 spectra were acquired in the ion trap with a normalized collision energy (NCE) set at 35%, AGC target set to 1.8×10^4 and a maximum injection time of 120 ms. MS3 scans were acquired in the Orbitrap with HCD collision energy set to 55%. AGC target set to 2×10^5, maximum injection time of 150 ms, resolution at 50,000 and with a maximum synchronous precursor selection (SPS) precursors set to 10.
(§5) Proteome Discoverer™ 2.1, 2.2 or 2.4 (Thermo Fisher Scientific) was used for .RAW file processing and controlling peptide and protein level false discovery rates, assembling proteins from peptides, and protein quantification from peptides.
In experiment [3] the test system is protein kinases in MOLT-4 cells. Nature of the experiment: Whole cell quantitative proteomics in MOLT-4 cells. The following applies: MOLT-4, 1 μM, 5 h.
Method: as §1, §2, §3, §4, §5
Experiment [4] addresses protein kinases (human kinome) (Homo sapiens, UniProt P48736). It counts as cell-based.
In experiment [5] the target is protein kinases (human kinome) (Homo sapiens, UniProt P49840). It counts as cell-based. The following applies: GSK3A P49840; experiment wp068.
The target of experiment [6] is protein kinases (human kinome) (Homo sapiens, UniProt Q96BR1). It counts as cell-based.
Experiment [7] concerns the target T1, protein kinases (human kinome) (Homo sapiens, UniProt Q9UQ88).
T1 sequence (Q9UQ88 1-783): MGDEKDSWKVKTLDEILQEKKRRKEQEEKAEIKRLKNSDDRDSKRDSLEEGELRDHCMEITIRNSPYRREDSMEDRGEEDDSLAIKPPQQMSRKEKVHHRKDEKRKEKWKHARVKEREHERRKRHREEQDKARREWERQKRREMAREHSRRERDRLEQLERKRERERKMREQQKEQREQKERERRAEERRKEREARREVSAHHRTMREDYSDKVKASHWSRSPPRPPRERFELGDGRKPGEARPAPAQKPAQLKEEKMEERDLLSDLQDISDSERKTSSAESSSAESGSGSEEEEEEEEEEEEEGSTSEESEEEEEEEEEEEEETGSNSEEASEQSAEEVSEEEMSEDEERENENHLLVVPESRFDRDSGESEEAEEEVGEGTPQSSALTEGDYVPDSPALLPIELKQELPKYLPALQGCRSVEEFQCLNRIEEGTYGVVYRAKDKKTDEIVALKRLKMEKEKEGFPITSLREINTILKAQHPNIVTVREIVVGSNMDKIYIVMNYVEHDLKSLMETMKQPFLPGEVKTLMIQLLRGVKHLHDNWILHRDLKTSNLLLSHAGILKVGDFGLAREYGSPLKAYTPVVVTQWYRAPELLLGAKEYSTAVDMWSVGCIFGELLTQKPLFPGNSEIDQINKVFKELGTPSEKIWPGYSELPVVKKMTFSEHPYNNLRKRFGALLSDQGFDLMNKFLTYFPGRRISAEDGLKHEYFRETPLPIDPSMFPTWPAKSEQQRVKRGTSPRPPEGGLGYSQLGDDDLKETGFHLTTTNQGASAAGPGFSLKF
It counts as cell-based.

For experiment [8], the target named is extended human kinome (kinase-like proteins) (Homo sapiens, UniProt Q16875). Nature of the experiment: Whole cell quantitative proteomics: extended kinome hits. The following applies: Accession Q16875; experiment wp068.
In experiment [9] the target is T2, protein kinases (human kinome) (Homo sapiens, UniProt P29323).
T2 sequence (P29323 19-1055): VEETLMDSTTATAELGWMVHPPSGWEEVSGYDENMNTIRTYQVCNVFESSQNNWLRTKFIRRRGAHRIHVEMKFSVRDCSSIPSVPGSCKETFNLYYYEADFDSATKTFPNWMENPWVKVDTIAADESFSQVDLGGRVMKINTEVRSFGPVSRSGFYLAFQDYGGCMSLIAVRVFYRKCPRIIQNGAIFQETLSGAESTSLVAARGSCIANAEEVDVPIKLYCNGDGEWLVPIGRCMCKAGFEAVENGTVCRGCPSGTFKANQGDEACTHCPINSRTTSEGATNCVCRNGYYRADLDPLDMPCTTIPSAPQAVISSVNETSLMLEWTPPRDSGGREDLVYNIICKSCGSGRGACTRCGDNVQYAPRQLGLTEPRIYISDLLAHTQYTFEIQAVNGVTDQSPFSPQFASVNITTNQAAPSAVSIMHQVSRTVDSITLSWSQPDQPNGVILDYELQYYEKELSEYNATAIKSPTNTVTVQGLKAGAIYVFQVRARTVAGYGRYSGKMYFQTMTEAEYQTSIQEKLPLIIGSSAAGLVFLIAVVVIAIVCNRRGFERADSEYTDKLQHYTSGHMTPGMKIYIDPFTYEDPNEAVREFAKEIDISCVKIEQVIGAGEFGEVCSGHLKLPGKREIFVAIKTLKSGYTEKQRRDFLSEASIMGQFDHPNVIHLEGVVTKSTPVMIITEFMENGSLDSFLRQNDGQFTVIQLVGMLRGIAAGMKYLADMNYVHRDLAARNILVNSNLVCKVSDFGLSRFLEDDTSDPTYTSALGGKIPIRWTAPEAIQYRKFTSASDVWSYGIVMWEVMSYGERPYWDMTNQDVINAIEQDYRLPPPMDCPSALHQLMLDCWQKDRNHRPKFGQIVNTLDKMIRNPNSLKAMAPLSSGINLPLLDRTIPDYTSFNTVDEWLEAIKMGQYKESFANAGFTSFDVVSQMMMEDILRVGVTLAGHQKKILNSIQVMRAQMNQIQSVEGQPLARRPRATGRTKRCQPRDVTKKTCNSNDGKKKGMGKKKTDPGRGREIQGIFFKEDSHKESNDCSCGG
The class given is cell-based.

Experiment [10] concerns the target protein kinases (human kinome) (Homo sapiens, UniProt P29597). It counts as cell-based. The following applies: experiment wp195.
The target of experiment [11] is protein kinases (human kinome) (Homo sapiens, UniProt P42684). The class given is cell-based.
For experiment [12], the target named is protein kinases (human kinome) (Homo sapiens, UniProt Q9H0K1). The class given is cell-based. The following applies: experiment wp195.
In a further experiment the test system is MM1.S cells. The experiment in a line: CellTiter-Glo viability assay. The class given is cell-based, H. sapiens. The following applies: MM.1S multiple myeloma cell line, 72 hours. Here is the method: MM1.S (purchased from ATCC) was seeded in a 96-well microplate at 10,000 cells per […] well in RPMI-1(40 media supplemented with 10% FBS and incubated with compounds (final DMSO concentration at 0.1%). Relative cell viability was measured 72 hours after drug addition using CellTiter-Glo® (Promega) according to the manufacturer's protocol. Each analysis was performed in biological triplicate.

The target of experiment [13] is protein kinases in MOLT-4 cells (Homo sapiens, UniProt O14965). The experiment in a line: Whole cell quantitative proteomics in MOLT-4 cells. The following applies: MOLT-4, 1 μM, 5 h; validated by immunoblotting.
Method: as §1, §2, §3, §4, §5
[14] abbreviates: Experiment wp068, direction of change down.
Where [15] appears, read: CLK1 P49759-3, experiment wp068.

Like-named read-outs stand apart in the source and are kept apart here.

Chain of protein kinases (human kinome) (Homo sapiens, UniProt P48736) (P48736 whole entry): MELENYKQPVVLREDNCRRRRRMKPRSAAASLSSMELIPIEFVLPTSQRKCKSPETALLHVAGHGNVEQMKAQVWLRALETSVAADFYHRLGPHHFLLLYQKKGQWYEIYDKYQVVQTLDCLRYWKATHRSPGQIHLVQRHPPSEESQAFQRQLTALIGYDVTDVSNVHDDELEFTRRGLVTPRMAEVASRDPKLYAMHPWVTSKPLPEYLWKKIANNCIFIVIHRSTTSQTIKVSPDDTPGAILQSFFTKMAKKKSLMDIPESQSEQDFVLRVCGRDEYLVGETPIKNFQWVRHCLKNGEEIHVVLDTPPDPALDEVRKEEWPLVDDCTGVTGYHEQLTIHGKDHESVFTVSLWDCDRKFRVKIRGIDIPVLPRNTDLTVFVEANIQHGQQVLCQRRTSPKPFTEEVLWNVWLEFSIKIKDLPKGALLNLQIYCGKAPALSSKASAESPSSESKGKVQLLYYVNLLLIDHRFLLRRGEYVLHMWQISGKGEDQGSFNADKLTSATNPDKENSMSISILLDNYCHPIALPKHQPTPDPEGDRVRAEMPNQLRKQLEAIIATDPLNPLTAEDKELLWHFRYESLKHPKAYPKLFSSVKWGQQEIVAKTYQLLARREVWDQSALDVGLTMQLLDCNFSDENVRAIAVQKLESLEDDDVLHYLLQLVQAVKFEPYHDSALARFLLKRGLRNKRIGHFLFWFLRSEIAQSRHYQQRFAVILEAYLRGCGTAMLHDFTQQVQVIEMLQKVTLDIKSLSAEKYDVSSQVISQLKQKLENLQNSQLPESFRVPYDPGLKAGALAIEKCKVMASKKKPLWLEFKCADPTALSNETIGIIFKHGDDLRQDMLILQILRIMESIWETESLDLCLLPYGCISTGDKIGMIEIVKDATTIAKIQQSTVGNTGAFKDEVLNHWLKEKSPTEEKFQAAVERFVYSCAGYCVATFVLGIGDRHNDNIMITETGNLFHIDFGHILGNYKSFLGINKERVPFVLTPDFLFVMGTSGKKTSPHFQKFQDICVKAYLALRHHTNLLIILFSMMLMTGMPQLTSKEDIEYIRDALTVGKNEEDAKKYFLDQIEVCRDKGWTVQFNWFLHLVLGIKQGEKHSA
Chain of protein kinases (human kinome) (Homo sapiens, UniProt P49840) (P49840 whole entry): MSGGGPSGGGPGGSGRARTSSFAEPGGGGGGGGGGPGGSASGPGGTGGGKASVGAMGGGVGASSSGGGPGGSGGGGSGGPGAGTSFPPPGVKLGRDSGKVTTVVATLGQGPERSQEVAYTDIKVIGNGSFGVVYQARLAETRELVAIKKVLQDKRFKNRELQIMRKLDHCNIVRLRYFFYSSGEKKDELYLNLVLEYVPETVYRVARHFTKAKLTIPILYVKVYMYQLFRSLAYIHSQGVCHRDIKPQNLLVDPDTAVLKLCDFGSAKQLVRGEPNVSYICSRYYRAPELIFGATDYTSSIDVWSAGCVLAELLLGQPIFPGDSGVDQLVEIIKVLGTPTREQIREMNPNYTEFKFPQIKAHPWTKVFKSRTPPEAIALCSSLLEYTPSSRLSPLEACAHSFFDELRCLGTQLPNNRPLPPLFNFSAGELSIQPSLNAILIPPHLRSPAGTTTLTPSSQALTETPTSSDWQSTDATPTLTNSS
Chain of protein kinases (human kinome) (Homo sapiens, UniProt P29597) (P29597 whole entry): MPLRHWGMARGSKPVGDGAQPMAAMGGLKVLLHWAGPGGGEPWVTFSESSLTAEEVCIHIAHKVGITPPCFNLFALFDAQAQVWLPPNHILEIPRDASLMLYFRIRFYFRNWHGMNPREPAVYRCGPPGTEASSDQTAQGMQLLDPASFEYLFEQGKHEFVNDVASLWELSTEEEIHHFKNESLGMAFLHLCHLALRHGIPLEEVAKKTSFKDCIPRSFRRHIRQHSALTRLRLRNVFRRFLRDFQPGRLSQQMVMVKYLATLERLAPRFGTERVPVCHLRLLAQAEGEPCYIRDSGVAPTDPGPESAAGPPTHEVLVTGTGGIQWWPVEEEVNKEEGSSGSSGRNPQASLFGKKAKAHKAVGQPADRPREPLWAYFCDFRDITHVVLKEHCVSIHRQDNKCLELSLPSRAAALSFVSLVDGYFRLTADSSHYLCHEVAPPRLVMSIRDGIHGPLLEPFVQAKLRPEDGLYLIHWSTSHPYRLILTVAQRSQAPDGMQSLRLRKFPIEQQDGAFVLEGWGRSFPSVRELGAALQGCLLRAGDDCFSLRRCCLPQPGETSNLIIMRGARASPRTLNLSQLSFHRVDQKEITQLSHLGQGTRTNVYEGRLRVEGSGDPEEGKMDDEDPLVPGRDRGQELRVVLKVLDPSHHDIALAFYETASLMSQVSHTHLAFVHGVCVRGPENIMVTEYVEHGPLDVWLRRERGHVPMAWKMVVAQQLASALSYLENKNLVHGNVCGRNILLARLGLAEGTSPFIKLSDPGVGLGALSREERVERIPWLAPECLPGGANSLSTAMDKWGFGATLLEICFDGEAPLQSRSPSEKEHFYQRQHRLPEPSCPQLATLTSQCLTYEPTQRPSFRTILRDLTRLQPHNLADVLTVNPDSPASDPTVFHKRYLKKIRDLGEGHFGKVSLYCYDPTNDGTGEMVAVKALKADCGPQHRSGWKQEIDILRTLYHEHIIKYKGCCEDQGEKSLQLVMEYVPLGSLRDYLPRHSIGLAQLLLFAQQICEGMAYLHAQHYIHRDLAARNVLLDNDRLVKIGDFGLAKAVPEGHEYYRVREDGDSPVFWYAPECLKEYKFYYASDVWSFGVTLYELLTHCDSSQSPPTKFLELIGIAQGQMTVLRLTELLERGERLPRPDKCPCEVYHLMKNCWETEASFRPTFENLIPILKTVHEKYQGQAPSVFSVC
Chain of protein kinases (human kinome) (Homo sapiens, UniProt Q9H0K1) (Q9H0K1 whole entry): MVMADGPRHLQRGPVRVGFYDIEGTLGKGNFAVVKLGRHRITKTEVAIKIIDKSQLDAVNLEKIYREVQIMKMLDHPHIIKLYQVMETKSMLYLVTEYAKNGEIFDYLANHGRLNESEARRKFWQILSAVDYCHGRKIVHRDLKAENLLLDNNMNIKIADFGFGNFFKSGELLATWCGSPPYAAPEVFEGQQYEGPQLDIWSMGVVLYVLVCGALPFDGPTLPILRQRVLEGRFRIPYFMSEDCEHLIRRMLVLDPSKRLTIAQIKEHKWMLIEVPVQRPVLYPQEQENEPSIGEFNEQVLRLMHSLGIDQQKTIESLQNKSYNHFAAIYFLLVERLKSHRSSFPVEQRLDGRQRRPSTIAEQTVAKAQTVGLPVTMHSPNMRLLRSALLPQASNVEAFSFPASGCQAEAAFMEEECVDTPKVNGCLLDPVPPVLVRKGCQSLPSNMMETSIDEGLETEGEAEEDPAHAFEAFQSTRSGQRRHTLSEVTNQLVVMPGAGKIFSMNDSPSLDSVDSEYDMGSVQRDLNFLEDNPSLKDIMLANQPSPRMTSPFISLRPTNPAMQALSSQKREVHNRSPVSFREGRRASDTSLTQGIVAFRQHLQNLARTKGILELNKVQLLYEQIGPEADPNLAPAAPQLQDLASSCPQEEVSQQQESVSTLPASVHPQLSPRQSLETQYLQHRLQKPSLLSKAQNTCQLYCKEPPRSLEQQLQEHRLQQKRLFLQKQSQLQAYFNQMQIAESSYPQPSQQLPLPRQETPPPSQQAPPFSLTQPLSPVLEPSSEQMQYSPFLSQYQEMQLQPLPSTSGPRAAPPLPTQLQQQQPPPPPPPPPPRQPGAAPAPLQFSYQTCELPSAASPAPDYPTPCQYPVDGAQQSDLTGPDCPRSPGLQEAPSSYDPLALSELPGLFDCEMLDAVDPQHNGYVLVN
Chain of protein kinases (human kinome) (Homo sapiens, UniProt P42684) (P42684 whole entry): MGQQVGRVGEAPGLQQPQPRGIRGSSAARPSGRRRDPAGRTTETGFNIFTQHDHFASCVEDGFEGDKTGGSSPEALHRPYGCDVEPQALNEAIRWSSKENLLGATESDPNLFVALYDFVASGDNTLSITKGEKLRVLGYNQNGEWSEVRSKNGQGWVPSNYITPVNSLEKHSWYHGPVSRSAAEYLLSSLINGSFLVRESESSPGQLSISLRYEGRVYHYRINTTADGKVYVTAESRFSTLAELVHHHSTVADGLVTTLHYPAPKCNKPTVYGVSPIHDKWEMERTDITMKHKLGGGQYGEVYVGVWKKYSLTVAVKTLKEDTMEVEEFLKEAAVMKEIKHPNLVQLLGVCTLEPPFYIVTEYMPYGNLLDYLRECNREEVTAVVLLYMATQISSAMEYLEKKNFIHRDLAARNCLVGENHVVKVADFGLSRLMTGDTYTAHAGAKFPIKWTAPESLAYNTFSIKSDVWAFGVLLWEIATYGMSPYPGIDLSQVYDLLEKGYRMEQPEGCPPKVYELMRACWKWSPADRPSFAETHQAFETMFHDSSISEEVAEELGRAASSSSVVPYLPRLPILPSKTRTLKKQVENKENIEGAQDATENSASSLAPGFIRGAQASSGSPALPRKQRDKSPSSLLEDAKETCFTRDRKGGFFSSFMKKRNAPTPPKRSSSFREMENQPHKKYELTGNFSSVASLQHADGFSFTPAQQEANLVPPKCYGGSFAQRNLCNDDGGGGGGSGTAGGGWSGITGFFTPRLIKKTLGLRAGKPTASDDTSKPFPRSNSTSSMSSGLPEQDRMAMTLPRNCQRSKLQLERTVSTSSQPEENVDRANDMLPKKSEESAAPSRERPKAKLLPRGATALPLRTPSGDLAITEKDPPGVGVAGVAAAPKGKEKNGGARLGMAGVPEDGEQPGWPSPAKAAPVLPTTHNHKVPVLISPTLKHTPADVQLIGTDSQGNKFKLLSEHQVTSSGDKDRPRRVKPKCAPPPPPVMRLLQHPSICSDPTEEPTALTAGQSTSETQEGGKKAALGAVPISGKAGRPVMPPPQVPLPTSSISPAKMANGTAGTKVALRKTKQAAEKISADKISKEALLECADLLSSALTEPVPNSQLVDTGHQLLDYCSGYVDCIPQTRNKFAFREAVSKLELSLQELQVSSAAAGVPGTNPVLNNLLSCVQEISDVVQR

As for `Cc1nc(Nc2ncc(C(=O)Nc3c(C)cccc3Cl)s2)cc(N2CCN(CC(=O)NCCCCNC(=O)COc3cccc4c3C(=O)N(C3CCC(=O)NC3=O)C4=O)CC2)n1` (stereo not drawn) [DB-3-291, N-(2-chloro-6-methylphenyl)-2-((6-(4-(2-((4-(2-((2-(2,6-dioxopiperidin-3-yl)-1,3-dioxoisoindolin-4-yl)oxy)acetamido)butyl)amino)-2-oxoethyl)piperazin-1-yl)-2-methylpyrimidin-4-yl)amino)thiazole-5-carboxamide], in experiment [1], the “kinases the bifunctional compound degrades” value was “ABL2, BLK, CSK, and WEE1”; the Kinase hits entry is “ABL2, BLK, CSK, WEE1”; the “Total no. kinase hits” value came out at 4. Also, the “degradation of CSK” value in [2] is recorded as “strongest degradation of CSK”. For the same compound, the “selectivity among CSK degraders” value in experiment [3] was “greatest selectivity”.

Consider `O=C1CCC(N2C(=O)c3cccc(NCCOCCOCCOCCOCCC(=O)Nc4cccc(CN5CCC(NC(=O)c6[nH]ncc6NC(=O)c6c(Cl)cccc6Cl)CC5)c4)c3C2=O)C(=O)N1` (stereo not drawn) [FMF.04.147.1], for which the “logFC PIK3CG (P48736)” value in experiment [4] (setting [14]) was −0.3581. Besides, the logFC was −0.3581 in [4] (PIK3CG (P48736), experiment wp068); −0.5346 in experiment [5]; −0.3389 in experiment [6] (SGK3 (Q96BR1-1), experiment wp068); −0.7386 in [7] (CDK11A (Q9UQ88-1), experiment wp068); −0.9142 in experiment [1] (CDK9 (P50750-2) protein abundance, degrader vs DMSO, down); −0.6462 in experiment [1] (setting [15]). For the same compound, the “logFC GSK3A” value in experiment [5] is on record as −0.5346. Further, the “logFC SGK3 (Q96BR1-1)” value in experiment [6] (setting [14]) is on record as −0.3389. Moreover, the “logFC of CDK11A (Q9UQ88-1)” value in experiment [7] (Experiment wp068) is −0.7386. The “logFC GSK3B” value in experiment [1] (Accession P49841-2, experiment wp068, direction down) is −0.6218; in [1] (GSK3B P49841-2, experiment wp068), −0.6218. In experiment [1] (setting [15]), the “logFC CLK1” value was −0.6462. In experiment [1] (Experiment wp068), the “logFC CDK9 (P50750-2)” value is given as −0.9142. The “logFC PFKFB3” value in [8] is given as −0.4462.

Regarding `Cc1ncsc1-c1ccc([C@H](C)NC(=O)[C@@H]2C[C@@H](O)CN2C(=O)[C@@H](NC(=O)CCCCCCc2ccc(Nc3ncc4c(n3)-c3ccccc3NC(=O)N4)cc2)C(C)(C)C)cc1` [JWG.148], the logFC in experiment [9] (EPHB2 (P29323), experiment wp195) is −0.3596; in experiment [11] (ABL2 (P42684) protein abundance, degrader vs DMSO, down) it was −0.516. Moreover, the “logFC of EPHB2 (P29323)” value in experiment [9] (Experiment wp195) is recorded as −0.3596. For the same compound, the “logFC TYK2 (P29597)” value in experiment [10] (direction of change down) is recorded as −0.5187. For the same compound, the “logFC TYK2” value in [10] (protein TYK2 (P29597), down) is listed as −0.5187. Further, the “logFC ABL2 (P42684)” value in experiment [11] (Experiment wp195) is given as −0.516. In [12] (Accession Q9H0K1), the “logFC of SIK2” value was −0.455. Moreover, the “logFC SIK2 (Q9H0K1)” value in experiment [12] (direction of change down) is on record as −0.455.

Turning to `COc1cc(Nc2ncc3c(n2)-c2ccc(Cl)cc2C(c2c(F)cccc2OC)=NC3)ccc1C(=O)NCCCOCCOCCOCCCNC(=O)COc1cccc2c1C(=O)N(C1CCC(=O)NC1=O)C2=O` (stereo not drawn) [dAURK-4, -((9-chloro-7-(2-fluoro-6-methoxyphenyl)-5H-benzo[c]pyrimido[4,5-e]azepin-2-yl)amino)-N-(1-((2-(2,6-dioxopiperidin-3-yl)-1,3-dioxoisoindolin-4-yl)oxy)-2-oxo-7,10,13-trioxa-3-2174 azahexadecan-16-yl)-2-methoxybenzamide], in [1], the “kinases the bifunctional compound degrades” value was “AURKA and AURKB”; the Kinase hits result is recorded as “AURKA, AURKB”; the “Total no. kinase hits” value amounted to 2. Also, the antiproliferative effects result in the experiment on MM1.S cells is listed as “superior antiproliferative effects over parental inhibitor alisertib”. In [13], the “degradation of AURKA” value is “potent and selective degradation”.

The values above are taken from patent US20240269139A1, “COMPOUNDS FOR TARGETED PROTEIN DEGRADATION OF KINASES” (DANA-FARBER CANCER INSTITUTE, INC., priority 2020, published 2024).
